Results reported in patent US20240317683A1, “METHODS OF TREATING MOOD DISORDERS” (priority 2020, published 2024).
pEC50: −log10 of the molar value. Counter-ions that a name gives are not always drawn.

Assays:
[1] = Metabolic stability in mouse liver microsomes (MLM); type: in vitro ADME, CD-1 mice; details: CD-1, mouse, pooled mouse liver microsomes, pH 7.4, NADPH
Experimental: (§1) MLM Stability. Pooled MLM from CD-1 mice (BIOIVT M00501) were used. Microsomal incubations were carried out in multi-well plates. […] Control incubations were performed by replacing the NADPH-cofactor system with PBS. Test compounds (1 μM, final solvent concentration 1.0%) were incubated with microsomes at 37° C. with constant shaking. Six time points over 60 minutes were analyzed, with 60 μL aliquots of the reaction mixture being drawn at each time point.

[2] = Metabolic stability in rat liver microsomes (RLM); type: in vitro ADME; details: both sexes, pooled rat liver microsomes, pH 7.4, NADPH
Experimental: as §1, with “RLM” for “MLM”, “adult male and female donors (Xenotech R1000)” for “CD-1 mice (BIOIVT M00501)”

[3] = Pharmacokinetics in mice, plasma; type: in vivo, C57BL/6 mice
Experimental: (§2) Animals. Male C57BL/6 mice, aged 8-12 weeks, were used in these studies. Four mice were housed in each cage. Temperature and humidity were maintained at 22±3° C. and 30-70%, respectively, and illumination was controlled to give a 12 h light and 12 h dark cycle. Temperature and humidity were recorded by an auto-controlled data logger system. All animals were provided laboratory rodent diet. Reverse osmosis water treated with ultraviolet light was provided ad libitum. Animals were randomly assigned to treatment groups.
(§3) Drugs. Compounds 4 and 5 were prepared as described above. All other compounds were commercially obtained. Test compounds were used as the hydrogen fumarate (1 and 2) or hydrochloride (3, 4, and 5) salts and were dissolved in a vehicle consisting of normal saline. They were then administered intravenously (IV) via the tail vein, subcutaneously (SC), or orally (PO) via gavage at a dose of 1 or 10 mg/kg (calculated based on the free base) and at a volume of 5 ml/kg body weight.
(§4) Sample Collection and Bioanalysis. Blood samples (approximately 60 μL) were collected under light isoflurane anesthesia (Surgivet®) from the retro orbital plexus at 0.08, 0.25, 0.5, 1, 2, 4, 8, and 24 h (4 animals per time point). Immediately after blood collection, plasma was harvested by centrifugation at 4,000 rpm for 10 min at 4° C. and samples were stored at −70±10° C. until bioanalysis. Following blood collection, animals were immediately sacrificed, the abdominal vena-cava was cut open, and the whole body was perfused from the heart using 10 mL of normal saline, and brain samples were collected from all animals. After isolation, brain samples were rinsed three times in ice-cold normal saline (for 5-10 seconds/rinse using ˜5-10 mL normal saline in disposable petri dish for each rinse) and dried on blotting paper. Brain samples were homogenized using ice-cold phosphate-buffered saline (pH 7.4). Total homogenate volume was three times the tissue weight. All homogenates were stored at −70±10° C. until bioanalysis. For bioanalysis, 25 μL aliquots of plasma/brain study samples or spiked plasma/brain calibration standards were added to individual pre-labeled micro-centrifuge tubes followed by 100 μL of an internal standard solution (glipizide, 500 ng/ml in acetonitrile) except for blanks, where 100 μL of acetonitrile was added. Samples were vortexed for 5 minutes and then centrifuged for 10 minutes at 4,000 rpm at 4° C. Following centrifugation, 100 μL of each clear supernatant was transferred to a 96 well plate and analyzed with a fit-for-purpose LC-MS/MS method, with authentic samples of each analyte used for calibration and identification.
(§5) Data Analysis. Pharmacokinetic parameters were estimated using the non-compartmental analysis tool of Phoenix® WinNonlin software (Ver 8.0).

[4] = Pharmacokinetics in mice, brain; type: in vivo, C57BL/6 mice; details: for half-life / Cmax / Tmax / AUC0-last: mouse brain
Experimental: as §2, §3, §4, §5

[5] = system: monoamine oxidase A and B (MAO-A and MAO-B); assay: Stability in the presence of monoamine oxidases (human liver mitochondria); type: in vitro ADME; details: for MAO stability (in words): human liver mitochondria preparation; for half-life at 1 μM / microsomal CLint at 1 μM: human liver mitochondria, pH 7.4; for half-life at 1 μM / microsomal CLint at 1 μM / Remaining (t = 60 min): human mitochondrial preparation, 1 μM
Experimental: Liver Mitochondria Incubations. Human liver mitochondria (Xenotech H0610.M) were used. Mitochondrial incubations were carried out in multi-well plates. […] Six time points over 60 minutes were analyzed.

[6] = biological target: 5-HT1A (Homo sapiens (Human), UniProt P08908); assay: FLIPR Ca2+ flux agonist assay, 5-HT1A; type: cell-based; details: for 5-HT1A % Act @ Max Dose: Ca2+ flux, CHO cells
Experimental: (§6) A solution of 250 mM probenecid in 1 mL FLIPR assay buffer was prepared fresh. This was combined with a fluorescent dye (Fluo-4 Direct™) to make a final assay concentration of 2.5 mM. […] The fluorescent dye was then added to the assay plate along with assay buffer to a final volume of 40 μL. The cell plate was incubated for 50 min at 37° C. and 5% CO2 and placed into the FLIPR Tetra along with the compound plate. 10 μL of references and compounds were then transferred from the compound plate into the cell plate and the fluorescent signal was read.

[7] = Stability in rat brain homogenate; type: in vitro ADME, Sprague Dawley rats; details: for half-life at 1 μM: male, Sprague Dawley; for half-life at 1 μM / % Compound Remaining (after 120 min): rat brain homogenate, 37° C., 1 μM
Experimental: Rat Brain Homogenate Stability. Frozen rat brain homogenate (pooled from male Sprague Dawley rats, BioreclamationIVT, RATOOBRAINMZA) was thawed in a water bath at 37° C. immediately prior to use. Positive controls and test compounds (final concentration in incubation medium=1 μM for test compounds and 2 μM for controls, all with 2% DMSO) were incubated in duplicate for each time point (0, 10, 30, 60, and 120 min) in the rat brain homogenate at a total reaction volume of 100 μL at 37° C. At the end of each incubation period, reactions were immediately quenched with 400 μL of acetonitrile containing internal standard (200 ng/ml tolbutamine and 200 ng/ml labetalol) and mixed thoroughly. Plates were then sealed, shaken for 20 min, and centrifuged at 4,000 rpm and 4° C. for 20 min. Aliquots of 50 μL of each supernatant were diluted into 100 uL of water and the mixtures were then shaken again for 10 min.

[8] = biological target: 5-HT2A (Homo sapiens (Human), UniProt P28223); assay: FLIPR Ca2+ flux agonist assay, 5-HT2A; type: cell-based
Experimental: as §6

[9] = male, C57BL/6, mouse plasma, IV, 1 mg/kg
[10] = male, C57BL/6, mouse plasma, oral, 1 mg/kg
[11] = male, C57BL/6, mouse plasma, SC, 1 mg/kg
[12] = male, C57BL/6, mouse plasma, SC, 10 mg/kg

Row | SMILES | half-life at 1 μM [1] | microsomal CLint at 1 μM [1] | half-life at 1 μM [2] | microsomal CLint at 1 μM [2] | MAO stability (in words) [5] | half-life at 1 μM [5] | microsomal CLint at 1 μM [5] | Remaining (t = 60 min) [5] | pEC50 [6] | 5-HT1A % Act @ Max Dose [6] | stability in rat brain homogenate (in words) [7] | half-life at 1 μM [7] | % Compound Remaining (after 120 min) [7] | 5-HT2A % Act @ Max Dose ([8]; HEK293) | also measured
1 | CN(C)CCc1c[nH]c2cccc(O)c12 [Psilocin, psilocin, reference compound] | 127 min | 10.9 µL/min/mg | 75.6 min | 18.3 µL/min/mg | highly stable | > 145 min | < 15.9 µL/min/mg | 112.1% | < 5.50 | 0.720% | intermediate stability | 115 min | 46.1% | – | AUC(0-t) [3, 9]: 79.9 ng·h/mL; clearance [3, 9]: 204 mL/min/kg; half-life [3, 9]: 66 min; Cmax ([3]; male, C57BL/6, mouse plasma, IV, 1 mg/kg, read-out: Cmax (C0 back-extrapolated to t = 0)): 195 ng/mL; AUC(0-t) [3, 10]: 51.1 ng·h/mL; Tmax [3, 10]: 10.2 min; half-life [3, 10]: 118 min; Cmax ([3]; male, C57BL/6, mouse plasma, oral, 1 mg/kg, read-out: Cmax): 85.9 ng/mL; F ([3]; mouse, oral, 1 mg/kg, based on plasma AUC0-last): 64%; clearance ([4]; male, C57BL/6, mouse brain table, IV, 1 mg/kg): 24.1 mL/min/kg; half-life ([4]; male, C57BL/6, IV, 1 mg/kg): 182 min; Cmax ([4]; male, C57BL/6, IV, 1 mg/kg, read-out: Cmax (C0 back-extrapolated to t = 0)): 1200 ng/g; Tmax ([4]; male, C57BL/6, oral, 1 mg/kg): 10.2 min; half-life ([4]; male, C57BL/6, oral, 1 mg/kg): 175 min; Cmax ([4]; male, C57BL/6, oral, 1 mg/kg, read-out: Cmax): 211 ng/g; AUC0-last ([4]; IV, 1 mg/kg): 702 ng·h/g; AUC0-last ([4]; oral, 1 mg/kg): 399 ng·h/g; F ([4]; mouse, oral, 1 mg/kg, based on brain AUC0-last): 57%
2 | CCCN(CC)CCc1c[nH]c2ccc(F)cc12 [Compound 3, N-ethyl-N-(2-(5-fluoro-1H-indol-3-yl)ethyl) propan-1-amine hydrochloride] | 5.5 min | 250 µL/min/mg | 3.2 min | 428 µL/min/mg | highly stable | > 145 min | < 15.9 µL/min/mg | 97.7% | 4.71 | 88.34% | high stability | > 289 min | 103.3% | 104.1% | selectivity for 5-HT2A over 5-HT2B (in words) [8]: little selectivity; pEC50 ([8]; HEK293): 8.26
3 | CN(C)CCc1c[nH]c2ccc(F)cc12 [Compound 5, 2-(5-fluoro-1H-indol-3-yl)-N,N-dimethylethan-1-amine hydrochloride] | 27.3 min | 50.8 µL/min/mg | 9.2 min | 151 µL/min/mg | highly metabolized | 8.7 min | 266 µL/min/mg | 0.9% | – | – | highly unstable | 2.7 min | 0.0% | – | AUC(0-t) [3, 11]: 11 ng·h/mL; Tmax [3, 11]: 4.8 min; Cmax ([3]; male, C57BL/6, mouse plasma, SC, 1 mg/kg, read-out: Cmax): 41.6 ng/mL; AUC(0-t) [3, 12]: 247 ng·h/mL; Tmax [3, 12]: 15 min; half-life [3, 12]: 16.2 min; Cmax ([3]; male, C57BL/6, mouse plasma, SC, 10 mg/kg, read-out: Cmax): 363 ng/mL; Tmax ([4]; male, C57BL/6, SC, 1 mg/kg): 4.8 min; Cmax ([4]; male, C57BL/6, SC, 1 mg/kg, read-out: Cmax): 22 ng/g; Tmax ([4]; male, C57BL/6, SC, 10 mg/kg): 15 min; Cmax ([4]; male, C57BL/6, SC, 10 mg/kg, read-out: Cmax): 778 ng/g; AUC0-last ([4]; SC, 10 mg/kg): 376.09 ng·h/g
4 | CN(C)CCc1c[nH]c2ccccc12 [DMT, N,N-dimethyltryptamine, reference compound] | 69.1 min | 20.1 µL/min/mg | 10.1 min | 137 µL/min/mg | highly metabolized | 17.1 min | 135 µL/min/mg | 8.9% | – | 68.1% | highly unstable | 5.1 min | 0.0% | 93.4% | –
